Laboratory results as given in patent publication US20170008888A1 (KYORIN PHARMACEUTICAL CO., LTD., priority 2014, published 2017).
Where two headings read alike, the source gives them in different places.

Tests used:
Format in all cases: binding
ERK5 = biological target: T1, ERK5 (Homo sapiens, UniProt Q13164); test: Probe-based (AX9989 acyl phosphate ATP probe) kinase profiling in Jurkat lysate: ERK5; details: for IC50: Jurkat lysate; for inhibition at 0.1 µM: screening concentration 0.1 μM
T1 construct: screened for activity against several kinases in Jurkat cells; endogenous in cells; host or cells: Jurkat cell lysate
Summary of the method: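 Gel-filtered Jurkat lysate (5 mg/ml, 20 mM MnCl2) preincubated 15 min at room temperature with compound, then labelled with 5 μM AX9989 acyl phosphate ATP probe. Probe-labelled ERK5 active-site peptides quantified by LC/MS after trypsin digestion and streptavidin capture; IC50 calculated from percent inhibition at the screening concentration.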

AurA = biological target: T2, AurA (Homo sapiens, UniProt O14965); test: Probe-based (AX9989) kinase profiling in Jurkat lysate: AurA; details: for inhibition at 0.1 µM: screening concentration 0.1 μM
T2 construct: screened for activity against several kinases in Jurkat cells; endogenous in cells; host or cells: Jurkat cell lysate
T2 sequence (O14965 1-403): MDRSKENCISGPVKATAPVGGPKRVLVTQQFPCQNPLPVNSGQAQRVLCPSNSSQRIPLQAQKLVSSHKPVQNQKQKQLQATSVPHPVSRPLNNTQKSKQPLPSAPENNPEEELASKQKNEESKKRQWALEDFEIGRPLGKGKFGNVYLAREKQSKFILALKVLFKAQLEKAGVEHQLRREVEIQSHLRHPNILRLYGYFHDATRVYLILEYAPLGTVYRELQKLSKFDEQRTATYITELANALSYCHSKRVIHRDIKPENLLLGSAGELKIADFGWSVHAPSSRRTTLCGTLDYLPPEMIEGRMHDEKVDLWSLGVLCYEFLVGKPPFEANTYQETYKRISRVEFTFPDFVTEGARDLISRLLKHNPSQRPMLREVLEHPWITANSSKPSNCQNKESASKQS
Summary of the method: (§1)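 Jurkat lysate, HEPES pH 7.5 buffer + 20 mM MnCl2; cpd 15 min RT; AX9989 ATP probe 5 μM final, RT. Trypsin digest, streptavidin capture, LC/MS; % inhibition vs vehicle from labeled-peptide signal.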

AurB or AurC = test: Probe-based (AX9989) kinase profiling in Jurkat lysate: AurB or AurC
Summary of the method: as §1

JAK1 = biological target: T3, JAK1 (Homo sapiens, UniProt P23458); test: Probe-based (AX9989) kinase profiling in Jurkat lysate: JAK1; details: for inhibition at 0.1 µM: screening concentration 0.1 μM
T3 construct: screened for activity against several kinases in Jurkat cells; endogenous in cells; host or cells: Jurkat cell lysate
Summary of the method: as §1

AMPKa1 or AMPKa2 = test: Probe-based (AX9989) kinase profiling in Jurkat lysate: AMPKa1 or AMPKa2
Summary of the method: as §1

TAO2 = biological target: T4, TAO2 (Homo sapiens, UniProt Q9UL54); test: Probe-based (AX9989) kinase profiling in Jurkat lysate: TAO2; details: for inhibition at 0.1 µM: screening concentration 0.1 μM
T4 construct: screened for activity against several kinases in Jurkat cells; endogenous in cells; host or cells: Jurkat cell lysate
T4 sequence (Q9UL54 1-1235): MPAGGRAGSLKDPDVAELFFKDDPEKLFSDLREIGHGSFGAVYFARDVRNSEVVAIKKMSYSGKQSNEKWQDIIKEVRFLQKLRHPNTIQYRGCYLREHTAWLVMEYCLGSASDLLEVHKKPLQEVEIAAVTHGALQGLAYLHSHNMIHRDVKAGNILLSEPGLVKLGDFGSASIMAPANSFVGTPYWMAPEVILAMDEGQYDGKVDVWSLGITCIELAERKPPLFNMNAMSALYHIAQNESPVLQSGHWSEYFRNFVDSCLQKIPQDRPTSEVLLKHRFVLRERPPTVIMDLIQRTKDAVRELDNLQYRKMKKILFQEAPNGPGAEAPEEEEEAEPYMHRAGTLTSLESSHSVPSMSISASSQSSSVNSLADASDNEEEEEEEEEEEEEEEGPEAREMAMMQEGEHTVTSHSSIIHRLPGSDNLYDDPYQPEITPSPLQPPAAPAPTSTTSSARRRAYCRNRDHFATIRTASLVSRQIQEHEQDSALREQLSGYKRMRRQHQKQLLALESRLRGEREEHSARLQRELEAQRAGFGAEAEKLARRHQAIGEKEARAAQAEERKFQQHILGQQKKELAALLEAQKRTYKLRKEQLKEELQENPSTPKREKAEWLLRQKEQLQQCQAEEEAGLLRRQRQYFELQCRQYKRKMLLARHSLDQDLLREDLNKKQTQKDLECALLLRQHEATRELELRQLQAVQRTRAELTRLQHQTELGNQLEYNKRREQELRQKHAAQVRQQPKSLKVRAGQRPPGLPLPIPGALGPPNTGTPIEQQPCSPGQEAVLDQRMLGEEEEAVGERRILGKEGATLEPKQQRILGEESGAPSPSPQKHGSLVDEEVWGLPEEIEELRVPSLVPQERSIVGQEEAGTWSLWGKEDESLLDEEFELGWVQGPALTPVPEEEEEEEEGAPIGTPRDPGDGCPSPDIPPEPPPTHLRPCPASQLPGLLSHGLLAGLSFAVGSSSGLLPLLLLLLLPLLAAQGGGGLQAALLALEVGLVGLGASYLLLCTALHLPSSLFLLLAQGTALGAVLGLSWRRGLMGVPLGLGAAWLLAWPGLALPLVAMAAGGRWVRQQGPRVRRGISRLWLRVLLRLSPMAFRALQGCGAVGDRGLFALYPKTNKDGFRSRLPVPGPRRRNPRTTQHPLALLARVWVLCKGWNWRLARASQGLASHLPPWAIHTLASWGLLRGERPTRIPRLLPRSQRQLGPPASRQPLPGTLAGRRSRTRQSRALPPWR
Summary of the method: as §1

ACK = biological target: T5, ACK (Homo sapiens, UniProt Q07912); test: Probe-based (AX9989) kinase profiling in Jurkat lysate: ACK; details: for inhibition at 0.1 µM: screening concentration 0.1 μM
T5 construct: screened for activity against several kinases in Jurkat cells; endogenous in cells; host or cells: Jurkat cell lysate
Summary of the method: as §1

ABL or ARG = test: Probe-based (AX9989) kinase profiling in Jurkat lysate: ABL or ARG
Summary of the method: as §1

[1] = biological target: T6, BRD4 bromodomain domain I [BRD4(1)] (Homo sapiens, UniProt O60885); test: BRD4 bromodomain domain 1 inhibition assay (TR-FRET); details: screening concentration 10 μM
T6 construct: BRD4 bromodomain domain I [BRD4(1)]; purchased Cayman Chemicals
Procedure: The inhibitory activity of test compounds on the bromodomain, BRD4 bromodomain domain I [BRD4(1)], were determined via TR-FRET after a slight modification of the manufacturer's protocol (Cayman Chemicals, Ann Arbor, Mich.). Briefly, compounds were diluted to a 20× ([…]) concentration in DMSO. 100 nL of 20× compounds were then dry stamped into triplicate wells of black, low volume 384 well plates (Aurora Biotechnologies, Carlsbad, Calif.) using the Mosquito liquid handler (TPP Labtech, Melbourn, UK). 20× compounds were then diluted to a 4× (40 μM) concentration in Assay Buffer to result in 2% DMSO content. […] JQ1 at 10 μM or 0.5% DMSO final concentrations were used as the positive and negative controls, respectively, to set the assay window. The fluorescence was read in a time-resolved format on the Biotec Synergy 2 plate reader by exciting the signal at 340 nm and reading emissions at 620 and 670, using a 100 μs delay and 200 μs read window. […] Briefly, TR-FRET ratio values were normalized to the average TR-FRET ratio value given by 10 μM JQ1. […]

[2] = calculated from percent inhibition of AX9989 labeling and the screening concentration
[3] = screening concentration 1.0 μM, read-out: Kinase inhibition % at indicated screening concentration: ERK5
[4] = screening concentration 1.0 μM, read-out: Kinase inhibition % at indicated screening concentration: AurA
[5] = screening concentration 1.0 μM, read-out: Kinase inhibition % at indicated screening concentration: JAK1
[6] = screening concentration 1.0 μM, read-out: Kinase inhibition % at indicated screening concentration: TAO2
[7] = screening concentration 1.0 μM, read-out: Kinase inhibition % at indicated screening concentration: ACK
[8] = read-out: Kinase inhibition % at indicated screening concentration: ERK5
[9] = read-out: Kinase inhibition % at indicated screening concentration: AurA
[10] = read-out: Kinase inhibition % at indicated screening concentration: JAK1
[11] = read-out: Kinase inhibition % at indicated screening concentration: TAO2
[12] = read-out: Kinase inhibition % at indicated screening concentration: ACK

T1 sequence (Q13164 whole entry): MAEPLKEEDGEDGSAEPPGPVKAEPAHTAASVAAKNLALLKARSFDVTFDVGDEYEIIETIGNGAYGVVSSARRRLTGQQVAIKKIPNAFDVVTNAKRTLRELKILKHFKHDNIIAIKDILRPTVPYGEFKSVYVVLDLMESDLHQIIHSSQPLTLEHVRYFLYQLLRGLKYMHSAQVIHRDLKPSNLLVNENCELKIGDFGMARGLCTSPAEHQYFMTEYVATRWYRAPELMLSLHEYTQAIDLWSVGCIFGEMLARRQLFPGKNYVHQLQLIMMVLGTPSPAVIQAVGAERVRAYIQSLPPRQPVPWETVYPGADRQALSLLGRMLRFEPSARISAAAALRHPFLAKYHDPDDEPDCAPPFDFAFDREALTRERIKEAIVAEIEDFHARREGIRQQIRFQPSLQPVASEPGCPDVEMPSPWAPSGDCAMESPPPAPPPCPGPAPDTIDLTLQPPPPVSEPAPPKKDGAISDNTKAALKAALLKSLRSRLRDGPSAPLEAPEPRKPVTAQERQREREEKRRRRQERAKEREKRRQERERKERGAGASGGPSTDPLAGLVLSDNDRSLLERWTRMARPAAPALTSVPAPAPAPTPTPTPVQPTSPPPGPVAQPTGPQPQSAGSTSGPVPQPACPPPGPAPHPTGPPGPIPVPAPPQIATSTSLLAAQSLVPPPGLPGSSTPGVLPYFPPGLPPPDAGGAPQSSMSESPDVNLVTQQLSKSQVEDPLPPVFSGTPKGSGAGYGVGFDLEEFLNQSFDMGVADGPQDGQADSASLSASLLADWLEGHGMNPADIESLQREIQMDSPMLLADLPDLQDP
T5 sequence (Q07912 whole entry): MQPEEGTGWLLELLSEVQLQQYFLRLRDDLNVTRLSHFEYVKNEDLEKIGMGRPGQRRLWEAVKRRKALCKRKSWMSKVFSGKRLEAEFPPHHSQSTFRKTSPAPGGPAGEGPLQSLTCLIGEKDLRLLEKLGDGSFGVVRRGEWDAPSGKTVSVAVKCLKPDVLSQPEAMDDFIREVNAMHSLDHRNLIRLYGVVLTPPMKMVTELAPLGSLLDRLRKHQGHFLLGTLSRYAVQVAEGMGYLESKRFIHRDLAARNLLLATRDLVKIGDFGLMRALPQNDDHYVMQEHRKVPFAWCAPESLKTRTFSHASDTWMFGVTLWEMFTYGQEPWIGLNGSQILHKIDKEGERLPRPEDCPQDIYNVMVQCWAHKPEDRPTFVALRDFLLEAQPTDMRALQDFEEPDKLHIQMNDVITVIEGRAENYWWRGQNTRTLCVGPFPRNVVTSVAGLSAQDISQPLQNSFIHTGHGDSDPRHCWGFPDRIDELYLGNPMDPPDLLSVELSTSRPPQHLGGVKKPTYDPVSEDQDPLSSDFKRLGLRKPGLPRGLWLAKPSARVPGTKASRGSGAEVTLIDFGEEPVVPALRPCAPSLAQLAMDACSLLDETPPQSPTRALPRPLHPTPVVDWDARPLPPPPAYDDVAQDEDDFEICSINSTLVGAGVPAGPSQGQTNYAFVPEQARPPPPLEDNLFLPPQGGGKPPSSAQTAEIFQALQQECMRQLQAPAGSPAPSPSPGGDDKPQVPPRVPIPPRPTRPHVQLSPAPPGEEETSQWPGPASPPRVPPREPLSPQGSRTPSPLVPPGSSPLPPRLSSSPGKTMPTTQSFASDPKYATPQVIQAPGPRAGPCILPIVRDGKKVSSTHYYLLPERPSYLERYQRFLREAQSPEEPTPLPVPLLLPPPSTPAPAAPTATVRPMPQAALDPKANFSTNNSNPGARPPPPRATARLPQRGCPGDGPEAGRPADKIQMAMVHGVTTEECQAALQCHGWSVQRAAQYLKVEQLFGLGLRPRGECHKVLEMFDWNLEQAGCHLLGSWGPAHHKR
T3 sequence (P23458 whole entry): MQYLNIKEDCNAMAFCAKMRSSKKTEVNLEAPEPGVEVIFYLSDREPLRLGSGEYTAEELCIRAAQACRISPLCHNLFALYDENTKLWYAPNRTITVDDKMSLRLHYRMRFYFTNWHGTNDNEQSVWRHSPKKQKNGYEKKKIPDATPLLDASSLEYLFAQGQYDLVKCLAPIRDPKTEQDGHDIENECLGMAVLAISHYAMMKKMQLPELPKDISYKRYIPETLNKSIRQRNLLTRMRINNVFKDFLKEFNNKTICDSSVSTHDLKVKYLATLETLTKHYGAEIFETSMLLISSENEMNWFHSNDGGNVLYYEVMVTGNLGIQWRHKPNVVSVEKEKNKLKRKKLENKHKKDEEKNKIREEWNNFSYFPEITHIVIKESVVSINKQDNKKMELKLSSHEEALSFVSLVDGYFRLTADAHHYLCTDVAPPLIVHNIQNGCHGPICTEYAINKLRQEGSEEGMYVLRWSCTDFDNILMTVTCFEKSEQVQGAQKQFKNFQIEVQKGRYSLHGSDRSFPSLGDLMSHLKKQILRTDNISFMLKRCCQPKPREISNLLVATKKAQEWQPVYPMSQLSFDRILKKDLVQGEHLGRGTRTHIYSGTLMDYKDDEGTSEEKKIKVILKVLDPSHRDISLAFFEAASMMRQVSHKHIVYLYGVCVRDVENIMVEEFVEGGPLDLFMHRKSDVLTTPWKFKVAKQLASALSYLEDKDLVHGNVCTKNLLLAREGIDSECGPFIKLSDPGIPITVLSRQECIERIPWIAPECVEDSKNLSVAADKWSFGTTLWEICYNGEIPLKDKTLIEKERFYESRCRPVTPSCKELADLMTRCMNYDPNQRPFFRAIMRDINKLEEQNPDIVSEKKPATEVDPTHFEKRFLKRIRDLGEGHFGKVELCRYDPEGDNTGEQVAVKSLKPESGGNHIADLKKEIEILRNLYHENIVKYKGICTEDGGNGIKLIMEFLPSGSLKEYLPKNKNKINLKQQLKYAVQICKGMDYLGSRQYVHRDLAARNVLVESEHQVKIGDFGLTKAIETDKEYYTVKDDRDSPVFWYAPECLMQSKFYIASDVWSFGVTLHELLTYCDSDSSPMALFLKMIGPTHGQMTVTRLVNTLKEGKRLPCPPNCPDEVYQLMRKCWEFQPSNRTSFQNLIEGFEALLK

| IC50 (ERK5; [2]) [nM] | inhibition at 1 µM (ERK5; [3]) [%] | inhibition at 1 µM (AurA; [4]) [%] | Kinase inhibition % at indicated screening concentration: AurB or AurC (AurB or AurC; screening concentration 1.0 μM) | inhibition at 1 µM (JAK1; [5]) [%] | Kinase inhibition % at indicated screening concentration: AMPKa1 or AMPKa2 (AMPKa1 or AMPKa2; screening concentration 1.0 μM) | inhibition at 1 µM (TAO2; [6]) [%] | inhibition at 1 µM (ACK; [7]) [%] | Kinase inhibition % at indicated screening concentration: ABL or ARG (ABL or ARG; screening concentration 1.0 μM) | inhibition at 10 µM [1] [%] | other results | Structure (SMILES) |
| --- | --- | --- | --- | --- | --- | --- | --- | --- | --- | --- | --- |
| 101 to 500 | 75 to 90 | ≤ 35 | E (E is ≦35%) | ≤ 35 | E (E is ≦35%) | ≤ 35 | ≤ 35 | E (E is ≦35%) | < 70 | – | CN1C(=O)c2ccccc2N(C)c2cc(NC3CCC(N)CC3)ncc21 (centres unmarked) [Compound 79] |
| 101 to 500 | – | – | – | – | – | – | – | – | < 70 | inhibition at 0.1 µM (ERK5; [8]): ≤ 35%; inhibition at 0.1 µM (AurA; [9]): ≤ 35%; Kinase inhibition % at indicated screening concentration: AurB or AurC (AurB or AurC; screening concentration 0.1 μM): E (E is ≦35%); inhibition at 0.1 µM (JAK1; [10]): ≤ 35%; Kinase inhibition % at indicated screening concentration: AMPKa1 or AMPKa2 (AMPKa1 or AMPKa2; screening concentration 0.1 μM): E (E is ≦35%); inhibition at 0.1 µM (TAO2; [11]): ≤ 35%; inhibition at 0.1 µM (ACK; [12]): ≤ 35%; Kinase inhibition % at indicated screening concentration: ABL or ARG (ABL or ARG; screening concentration 0.1 μM): E (E is ≦35%) | COc1cc(C(=O)N2CCC(N(C)C)C2)c(F)cc1Nc1cc2c(cn1)N(C)C(=O)c1ccccc1N2C (centres unmarked) [Compound 90] |
| ≤ 50 | > 90 | ≤ 35 | C (C is >50% to ≦75%) | 35 to 50 | E (E is ≦35%) | 50 to 75 | ≤ 35 | E (E is ≦35%) | 70 to 85 | – | CN1CCC(c2ccc(Nc3cc4c(cn3)N(C)C(=O)c3ccccc3N4C)cc2)CC1 [Compound 92] |
| > 500 | 50 to 75 | ≤ 35 | E (E is ≦35%) | ≤ 35 | E (E is ≦35%) | ≤ 35 | ≤ 35 | E (E is ≦35%) | < 70 | – | CC(=O)NC1CCC(Nc2cc3c(cn2)N(C)C(=O)c2ccccc2N3C)CC1 (centres unmarked) [Compound 98] |
| 101 to 500 | 75 to 90 | ≤ 35 | E (E is ≦35%) | ≤ 35 | E (E is ≦35%) | ≤ 35 | ≤ 35 | E (E is ≦35%) | 70 to 85 | – | CN1C(=O)c2ccccc2N(C)c2cc(N[C@H]3CC[C@H](NS(C)(=O)=O)CC3)ncc21 [Compound 99] |
| > 500 | 35 to 50 | ≤ 35 | E (E is ≦35%) | ≤ 35 | E (E is ≦35%) | ≤ 35 | ≤ 35 | E (E is ≦35%) | < 70 | – | CCOc1cc(C(=O)NC2CCC(O)CC2)ccc1Nc1cc2c(cn1)N(C)C(=O)c1ccccc1N2C (centres unmarked) [Compound 109] |
| ≤ 50 | – | – | – | – | – | – | – | – | > 85 | inhibition at 0.1 µM (ERK5; [8]): > 90%; inhibition at 0.1 µM (AurA; [9]): ≤ 35%; Kinase inhibition % at indicated screening concentration: AurB or AurC (AurB or AurC; screening concentration 0.1 μM): E (E is ≦35%); inhibition at 0.1 µM (JAK1; [10]): ≤ 35%; Kinase inhibition % at indicated screening concentration: AMPKa1 or AMPKa2 (AMPKa1 or AMPKa2; screening concentration 0.1 μM): E (E is ≦35%); inhibition at 0.1 µM (TAO2; [11]): ≤ 35%; inhibition at 0.1 µM (ACK; [12]): ≤ 35%; Kinase inhibition % at indicated screening concentration: ABL or ARG (ABL or ARG; screening concentration 0.1 μM): E (E is ≦35%) | CCOc1cc(C(=O)N2CCCC(N)C2)ccc1Nc1cc2c(cn1)N(C)C(=O)c1occc1N2C (centres unmarked) [Compound 113] |
| – | – | – | – | – | – | – | – | – | < 70 | IC50 (ERK5; calculated from percent inhibition and screening concentration, AX9989 probe): 101 to 500 nM; inhibition at 1 µM (ERK5; screening concentration 1 μM, read-out: ERK5 Inhibition % at indicated screening concentration): 75 to 90%; inhibition at 1 µM (AurA; screening concentration 1 μM, read-out: AurA Inhibition % at indicated screening concentration): ≤ 35%; AurB or AurC Inhibition % at indicated screening concentration (AurB or AurC; screening concentration 1 μM): E (E is ≦35%); inhibition at 1 µM (JAK1; screening concentration 1 μM, read-out: JAK1 Inhibition % at indicated screening concentration): ≤ 35%; AMPKa1 or AMPKa2 Inhibition % at indicated screening concentration (AMPKa1 or AMPKa2; screening concentration 1 μM): E (E is ≦35%); inhibition at 1 µM (TAO2; screening concentration 1 μM, read-out: TAO2 Inhibition % at indicated screening concentration): ≤ 35%; inhibition at 1 µM (ACK; screening concentration 1 μM, read-out: ACK Inhibition % at indicated screening concentration): ≤ 35%; ABL or ARG Inhibition % at indicated screening concentration (ABL or ARG; screening concentration 1 μM): E (E is ≦35%) | CCOc1cc(C(=O)N2CCOCC2)ccc1Nc1cc2c(cn1)N(C)C(=O)c1ccccc1O2 [Compound T81, 3-((2-ethoxy-4-(morpholine-4-carbonyl)phenyl)amino)-11-methylbenzo[f]pyrido[4,3-b][1,4]oxazepin-10(11H)-one] |
